Patent publication US11702419B2, “Heterocyclic compound and use thereof” (Takeda Pharmaceutical Company Limited, priority 2018, dated 2023)

What follows are compounds tested against T1, NMDA receptor composed of four subunits consisting of two sets of heterodimers of NR1 and NR2B (human GRIN1 and GRIN2B-expressing HEK293 cells) (Homo sapiens, UniProt Q13224) (assay: NR2B Ca2+ influx assay). Conditions: 10 μM compound, glutamic acid/glycine-induced Ca2+ influx, FLIPR, read-out: inhibitory rate (10 μM compound concentration).
T1 construct: host or cells: HEK293 (tetracycline-inducible expression)
T1 sequence (Q13224 27-1484, other chains not shown): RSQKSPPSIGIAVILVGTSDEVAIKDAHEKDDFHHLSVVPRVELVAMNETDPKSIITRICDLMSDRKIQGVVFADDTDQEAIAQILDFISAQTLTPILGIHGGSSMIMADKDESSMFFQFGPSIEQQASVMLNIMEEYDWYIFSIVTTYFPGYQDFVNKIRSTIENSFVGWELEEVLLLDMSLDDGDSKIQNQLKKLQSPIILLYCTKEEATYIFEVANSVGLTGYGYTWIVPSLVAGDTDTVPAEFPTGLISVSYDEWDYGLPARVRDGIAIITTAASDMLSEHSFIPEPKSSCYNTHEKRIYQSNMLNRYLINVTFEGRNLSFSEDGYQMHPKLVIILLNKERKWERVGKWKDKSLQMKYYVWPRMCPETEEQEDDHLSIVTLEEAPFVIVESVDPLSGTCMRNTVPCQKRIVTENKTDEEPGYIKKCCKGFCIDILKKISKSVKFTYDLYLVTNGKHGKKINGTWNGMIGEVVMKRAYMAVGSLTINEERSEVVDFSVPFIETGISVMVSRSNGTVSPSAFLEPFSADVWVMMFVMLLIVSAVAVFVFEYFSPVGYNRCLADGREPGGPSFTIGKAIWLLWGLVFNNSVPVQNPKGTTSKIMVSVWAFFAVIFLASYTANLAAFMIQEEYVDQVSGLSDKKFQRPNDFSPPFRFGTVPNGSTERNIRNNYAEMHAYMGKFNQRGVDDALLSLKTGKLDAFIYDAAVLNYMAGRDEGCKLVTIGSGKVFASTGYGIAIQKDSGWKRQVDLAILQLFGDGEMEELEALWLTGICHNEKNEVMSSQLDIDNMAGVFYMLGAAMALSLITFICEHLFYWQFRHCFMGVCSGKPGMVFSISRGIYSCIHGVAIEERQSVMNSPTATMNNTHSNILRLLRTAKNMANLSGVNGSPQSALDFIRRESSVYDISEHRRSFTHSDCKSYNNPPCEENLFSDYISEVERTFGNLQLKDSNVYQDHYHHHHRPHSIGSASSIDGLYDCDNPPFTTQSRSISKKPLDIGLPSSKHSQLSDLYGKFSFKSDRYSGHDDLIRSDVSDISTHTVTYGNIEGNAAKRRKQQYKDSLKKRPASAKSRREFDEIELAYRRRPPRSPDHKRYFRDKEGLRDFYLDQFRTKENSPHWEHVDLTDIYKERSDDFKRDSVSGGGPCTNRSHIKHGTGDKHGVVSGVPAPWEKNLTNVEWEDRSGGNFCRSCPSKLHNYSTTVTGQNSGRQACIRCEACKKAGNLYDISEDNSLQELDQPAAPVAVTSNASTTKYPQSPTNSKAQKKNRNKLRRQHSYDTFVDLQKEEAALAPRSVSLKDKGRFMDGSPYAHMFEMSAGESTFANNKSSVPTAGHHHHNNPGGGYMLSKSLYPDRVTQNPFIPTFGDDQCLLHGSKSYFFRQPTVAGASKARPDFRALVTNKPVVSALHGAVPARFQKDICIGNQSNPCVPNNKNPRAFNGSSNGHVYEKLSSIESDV
Format: cell-based
Experimental: In order to confirm an “antagonistic action on an NMDA receptor containing the NR2B subunit” which the compound of the present invention has, inhibitory effect on the NMDA receptor activation was evaluated using “NMDA receptor composed of four subunits consisting of two sets of heterodimers of NR1 and NR2B”-expressing human fetal renal cells, specifically human glutamate ionotropic receptor NMDA type subunit 1 (GRIN1) and human glutamate ionotropic receptor NMDA type subunit 2B (GRIN2B)-expressing HEK293 cells.
As an index of the NMDA receptor activation, intracellular calcium ion (Ca^2+) influx caused by bonding of glycine and glutamate to NR1 and NR2B respectively was used. HEK293 cells were purchased from ChanTest. The cells were cultured in a DMEM/F-12 (COSMO BIO, 10-092-CM) medium containing 10% FBS (fetal bovine serum, AusGene), 100 units/mL penicillin, 100 μg/mL streptomycin, 500 μg/mL neomycin, 100 μg/mL Zeocin and 5 μg/mL Blasticidin at 37° C., 5% CO2. The cells were detached from flask with trypsin the day before the assay, suspended in a seeding medium (DMEM (Invitrogen, 31053) containing 10% FBS, 100 units/mL penicillin and 100 μg/mL streptomycin) at 8×10^5 cells/mL, seeded by 25 μL per well in a 384-well plate (Falcon, 356663) at 20000 cells/well, and cultured overnight in an incubator. On the day of the assay, tetracycline (Wako Pure Chemical Industries, 209-16561) was diluted with the seeding medium at 2 μg/mL, and the dilution was added at 25 μL/well to the plate seeded with the cells, and the cells were cultured for 2 hr in an incubator. Thereafter, the medium was removed, and the cells were washed with 50 μL/well of assay buffer (137 mM NaCl, 4 mM KCl, 1.8 mM CaCl2, 10 mM HEPES (pH 7.2), 10 mM Glucose, and 0.1% BSA). Then, a loading buffer (assay buffer containing 2.5 μM Fluo-4AM, 2 mM Amaranth and 1 mM Tartrazine) was added thereto at 25 μL/well, and loading was performed in the incubator for 30 min, and then at room temperature for 15 min. The test compound was diluted with the above-mentioned assay buffer so as to adjust the concentration to 30 μM, the obtained solution (25 μL) was added thereto (the final concentration 10 μM), and the cells were stood for 15 min at room temperature. Using FLIPR (Molecular Devices), 25 μL of an assay buffer containing 30 μM glutamic acid and 30 μM glycine was added thereto, and the fluorescence signal was measured every 3 seconds for 5 min. The relative activity value (inhibitory rate) was calculated when the cumulative total value of the fluorescence value of a well added with a buffer free of glutamic acid and glycine, relative to the cumulative total value of the fluorescence value of each well are regarded as 100% inhibition. The obtained value was evaluated as an inhibitory activity.

SMILES | inhibition at 10 µM
COc1c(F)cc(C(=O)NCc2cnn3ncccc23)cc1F [Example 12, 3,5-difluoro-4-methoxy-N-(pyrazolo[1,5-b]pyridazin-3-ylmethyl)benzamide] | 97%
COc1c(F)cc(C(=O)NCc2nnn3ccccc23)cc1F [Example 41, 3,5-difluoro-4-methoxy-N-([1,2,3]triazolo[1,5-a]pyridin-3-ylmethyl)benzamide] | 86%
Cc1ccnn2ncc(CNC(=O)c3ccc(OC(F)(F)F)c(F)c3)c12 [Example 20, 3-fluoro-N-((4-methylpyrazolo[1,5-b]pyridazin-3-yl)methyl)-4-(trifluoromethoxy)benzamide] | 97%
O=C(NCc1cnn2ncccc12)c1ccc(OC(F)F)c(Cl)c1 [Example 7, 3-chloro-4-(difluoromethoxy)-N-(pyrazolo[1,5-b]pyridazin-3-ylmethyl)benzamide] | 98%
O=C(NCc1nnn2ncccc12)c1cnc(OC(F)F)c(Cl)c1 [Example 22, 5-chloro-6-(difluoromethoxy)-N-([1,2,3]triazolo[1,5-b]pyridazin-3-ylmethyl)nicotinamide] | 98%
O=C(NCc1cnn2ccncc12)c1cnc(OC(F)F)c(F)c1 [Example 45, 6-(difluoromethoxy)-5-fluoro-N-(pyrazolo[1,5-a]pyrazin-3-ylmethyl)nicotinamide] | 92%
O=C(NCc1nnn2ncccc12)c1ccc(OC(F)F)c(F)c1 [Example 33, 4-(difluoromethoxy)-3-fluoro-N-([1,2,3]triazolo[1,5-b]pyridazin-3-ylmethyl)benzamide] | 97%
O=C(NCc1nnn2ccccc12)c1cnc(OC(F)F)c(F)c1 [Example 14, 6-(difluoromethoxy)-5-fluoro-N-([1,2,3]triazolo[1,5-a]pyridin-3-ylmethyl)nicotinamide] | 94%
Cc1nn2ncccc2c1CNC(=O)c1cnc(OC(F)F)c(F)c1 [Example 17, 6-(difluoromethoxy)-5-fluoro-N-((2-methylpyrazolo[1,5-b]pyridazin-3-yl)methyl)nicotinamide] | 94%
O=C(NCc1cnn2ccncc12)c1ccc(OC(F)F)c(F)c1 [Example 44, 4-(difluoromethoxy)-3-fluoro-N-(pyrazolo[1,5-a]pyrazin-3-ylmethyl)benzamide] | 94%
Cc1cnn2ncc(CNC(=O)c3ccc(OC(F)F)c(F)c3)c2c1 [Example 38, 4-(difluoromethoxy)-3-fluoro-N-((5-methylpyrazolo[1,5-b]pyridazin-3-yl)methyl)benzamide] | 98%
O=C(NCc1c(C2CC2)nn2ncccc12)c1ccc(OC(F)F)c(F)c1 [Example 29, N-((2-cyclopropylpyrazolo[1,5-b]pyridazin-3-yl)methyl)-4-(difluoromethoxy)-3-fluorobenzamide] | 89%
O=C(NCc1nnn2ncccc12)c1ccc(OC(F)(F)F)c(Cl)c1 [Example 40, 3-chloro-N-([1,2,3]triazolo[1,5-b]pyridazin-3-ylmethyl)-4-(trifluoromethoxy)benzamide] | 98%
O=C(NCc1cnn2ncccc12)c1cnc(OC(F)F)c(Cl)c1 [Example 8, 5-chloro-6-(difluoromethoxy)-N-(pyrazolo[1,5-b]pyridazin-3-ylmethyl)nicotinamide] | 97%
Cc1cccn2nnc(CNC(=O)c3ccc(OC(F)F)c(Cl)c3)c12 [Example 3, 3-chloro-4-(difluoromethoxy)-N-((4-methyl[1,2,3]triazolo[1,5-a]pyridin-3-yl)methyl)benzamide] | 76%
O=C(NCc1nnn2ncccc12)c1ccc(OC(F)F)c(Cl)c1 [Example 30, 3-chloro-4-(difluoromethoxy)-N-([1,2,3]triazolo[1,5-b]pyridazin-3-ylmethyl)benzamide] | 97%
O=C(NCc1cnn2ncccc12)c1ccc(OC(F)(F)F)c(F)c1 [Example 5, 3-fluoro-N-(pyrazolo[1,5-b]pyridazin-3-ylmethyl)-4-(trifluoromethoxy)benzamide] | 99%
O=C(NCc1cnn2ccncc12)c1ccc(OC(F)(F)F)c(F)c1 [Example 16, 3-fluoro-N-(pyrazolo[1,5-a]pyrazin-3-ylmethyl)-4-(trifluoromethoxy)benzamide] | 97%

Now from value to compound:

inhibition at 10 µM | SMILES
95% | CCn1ccn2ncc(CNC(=O)c3cnc(OC(F)F)c(Cl)c3)c12 [Example 84, 5-chloro-6-(difluoromethoxy)-N-[(1-ethyl-1H-imidazo[1,2-b]pyrazol-7-yl)methyl]pyridine-3-carboxamide]
79% | Cc1ccnn2nnc(CNC(=O)c3cnc(OC(F)F)c(Cl)c3)c12 [Example 54, 5-chloro-6-(difluoromethoxy)-N-((4-methyl[1,2,3]triazolo[1,5-b]pyridazin-3-yl)methyl)nicotinamide]
96% | Cn1ccn2ncc(CNC(=O)c3ccc(Cl)c(F)c3)c12 [Example 63, 4-chloro-3-fluoro-N-((1-methyl-1H-imidazo[1,2-b]pyrazol-7-yl)methyl)benzamide]
54% | Cc1nn2ncc(CNC(=O)c3cnc(OC(F)F)c(Cl)c3)c2n1CC(F)F [Example 77, 5-chloro-N-{[1-(2,2-difluoroethyl)-2-methyl-1H-pyrazolo[1,5-b][1,2,4]triazol-7-yl]methyl}-6-(difluoromethoxy)pyridine-3-carboxamide]
97% | Cn1ccn2ncc(CNC(=O)c3cnc(OC(F)F)c(Cl)c3)c12 [Example 59, 5-chloro-6-(difluoromethoxy)-N-((1-methyl-1H-imidazo[1,2-b]pyrazol-7-yl)methyl)nicotinamide]
72% | O=C(NCc1cnn2ccn(CC(F)(F)F)c12)c1cnc(OC(F)F)c(F)c1 [Example 82, 6-(difluoromethoxy)-5-fluoro-N-{[1-(2,2,2-trifluoroethyl)-1H-imidazo[1,2-b]pyrazol-7-yl]methyl}pyridine-3-carboxamide]
95% | Cc1ccnn2nnc(CNC(=O)c3ccc(OC(F)(F)F)c(F)c3)c12 [Example 52, 3-fluoro-N-((4-methyl[1,2,3]triazolo[1,5-b]pyridazin-3-yl)methyl)-4-(trifluoromethoxy)benzamide]
87% | O=C(NCc1cnn2ccn(CC(F)F)c12)c1cnc(OC(F)F)c(F)c1 [Example 79, N-{[1-(2,2-difluoroethyl)-1H-imidazo[1,2-b]pyrazol-7-yl]methyl}-6-(difluoromethoxy)-5-fluoropyridine-3-carboxamide]
97% | Cn1ccn2ncc(CNC(=O)c3ccc(OC(F)(F)F)c(F)c3)c12 [Example 57, 3-fluoro-N-((1-methyl-1H-imidazo[1,2-b]pyrazol-7-yl)methyl)-4-(trifluoromethoxy)benzamide]
90% | Cc1nn2cnccc2c1CNC(=O)c1ccc(OC(F)(F)F)c(F)c1 [Example 48, 3-fluoro-N-((2-methylpyrazolo[1,5-c]pyrimidin-3-yl)methyl)-4-(trifluoromethoxy)benzamide]
91% | O=C(NCc1cnn2ccn(CC(F)F)c12)c1cnc(OC(F)F)c(Cl)c1 [Example 80, 5-chloro-N-[{1-(2,2-difluoroethyl)-1H-imidazo[1,2-b]pyrazol-7-yl]methyl}-6-(difluoromethoxy)pyridine-3-carboxamide]
88% | Cn1ccn2ncc(CNC(=O)c3ccc(OC4CC4)cc3)c12 [Example 60, 4-(cyclopropyloxy)-N-((1-methyl-1H-imidazo[1,2-b]pyrazol-7-yl)methyl)benzamide]
96% | Cc1nn2ncccc2c1CNC(=O)c1cnc(OC(F)F)c(Cl)c1 [Example 46, 5-chloro-6-(difluoromethoxy)-N-((2-methylpyrazolo[1,5-b]pyridazin-3-yl)methyl)nicotinamide]
96% | Cn1ccn2ncc(CNC(=O)c3ccc(C(F)(F)F)s3)c12 [Example 65, N-((1-methyl-1H-imidazo[1,2-b]pyrazol-7-yl)methyl)-5 (trifluoromethyl)thiophene-2-carboxamide]
